{"source": "patent US6416793B1", "about": "“Formulations and use of controlled-release indole alkaloids” (BioResponse, L.L.C., priority 2000, dated 2002)", "origin": "cited, not measured here", "key": {"[1]": {"test_system": "humans"}, "[2]": {"test_system": "diet-restricted animals"}, "[3]": {"test_system": "overweight men", "settings": "16.2 to 43.2 mg/day, six month period"}, "[4]": {"settings": "tableted preparations of pure yohimbine"}, "[5]": {"test_system": "overweight female subjects", "settings": "three weeks"}, "[6]": {"test_system": "dogs", "settings": "0.4 mg/kg/day"}, "[7]": {"test_system": "obese and non-obese women", "settings": "in vivo"}}, "note": "Counter-ions that a name gives are not always drawn."}
{"compound": "O=C(O[C@@H]1Cc2c(O)cc(O)cc2O[C@@H]1c1cc(O)c(O)c(O)c1)c1cc(O)c(O)c(O)c1", "note": "[epigallocatechin gallate (EGCG), epigallocatechin gallate]", "values": [{"measurement": "resting energy expenditure", "setting": "[1]", "result": "increase resting energy expenditure in humans"}, {"measurement": "rate of weight loss", "setting": "[2]", "result": "increase the rate of weight loss in diet-restricted animals"}]}
{"compound": "COC(=O)[C@@H]1[C@H]2C[C@H]3c4[nH]c5ccccc5c4CCN3C[C@@H]2CC[C@@H]1O", "note": "[yohimbine Hcl, (16 alpha, 17 alpha)-17-hydroxyyohimban-16-carboxylic acidmethyl ester hydrochloride]", "values": [{"measurement": "additional weight loss versus placebo", "setting": "[3]", "result": "failed to show advantage in additional weight loss over placebo"}]}
{"compound": "COC(=O)[C@@H]1[C@H]2C[C@H]3c4[nH]c5ccccc5c4CCN3C[C@@H]2CC[C@@H]1O", "note": "[yohimbine]", "values": [{"measurement": "plasma half life", "setting": "[4]", "result": "less than 1 hour"}]}
{"compound": "yohimbine", "values": [{"measurement": "continued weight loss versus placebo", "setting": "[5]; 5 mg 4 times per day (20 mg/day), weight loss diet", "result": "Significantly greater continued weight loss"}, {"measurement": "energy expenditure during exercise", "setting": "[5]; 20 mg/day", "result": "greater energy expenditure in the treated group during exercise"}, {"measurement": "body weight", "setting": "[6]", "result": "rapid loss of body weight"}, {"measurement": "daily food intake", "setting": "[6]; rapidly absorbed pure yohimbine", "result": "dramatic reduction in daily food intake"}, {"measurement": "circulating levels of norepinephrine", "setting": "[7]", "result": "increase circulating levels of norepinephrine"}]}
